Test results reported in PubChem BioAssay AID330 (DTP/NCI, 2004).
Several values for one entry are separate records, joined by “and”; a condition that tells them apart may be missing. Identical values can stand only once. Toxic doses and inconclusive results are not listed. Rule for the calls: active = survival T/C of 150% or more; inactive = T/C below 125% in these data.

Test system: P388 leukemia ip, CD2F1 mice, survival T/C
Assay: NCI In Vivo Anticancer Drug Screen. Data for tumor model P388 Leukemia (intraperitoneal) in CD2F1 (CDF1) mice
Conditions: endpoint: median survival time, higher = longer survival
Outline: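 Mice carrying the transplanted tumor received test compound or vehicle. Survival was recorded in each group, and the value is the treated-group measurement divided by that of the vehicle-treated control group.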

[1] = dose: 50.0 mg/kg/injection, schedule: Q01DX005 (ip), vehicle: saline with Tween-80
[2] = dose: 12.5 mg/kg/injection, schedule: Q01DX009 (ip), vehicle: saline with Tween-80
[3] = dose: 25.0 mg/kg/injection, schedule: Q01DX009 (ip), vehicle: saline with Tween-80
[4] = dose: 25.0 mg/kg/injection, schedule: Q04DX003 (ip), vehicle: saline with Tween-80
[5] = dose: 50.0 mg/kg/injection, schedule: Q01DX009 (ip), vehicle: saline with Tween-80
[6] = dose: 50.0 mg/kg/injection, schedule: Q04DX003 (ip), vehicle: saline with Tween-80
[7] = dose: 100.0 mg/kg/injection, schedule: Q01DX009 (ip), vehicle: saline with Tween-80
[8] = dose: 100.0 mg/kg/injection, schedule: Q04DX003 (ip), vehicle: saline with Tween-80
[9] = dose: 50.0 mg/kg/injection, schedule: Q01DX001 (ip), vehicle: saline with Tween-80
[10] = dose: 100.0 mg/kg/injection, schedule: Q01DX001 (ip), vehicle: saline with Tween-80
[11] = dose: 100.0 mg/kg/injection, schedule: Q04DX003 (ip), vehicle: Klucel (hydroxypropylcellulose) (HPC)
[12] = dose: 400.0 mg/kg/injection, schedule: Q04DX003 (ip), vehicle: Klucel (hydroxypropylcellulose) (HPC)

Measured: T/C

O=C1c2cccc3cc([N+](=O)[O-])cc(c23)C(=O)N1CCNCCNCCNCCN1C(=O)c2cccc3cc([N+](=O)[O-])cc(c23)C1=O
inactive: dose: 5.0 mg/kg/injection, schedule: Q04DX002 (ip), vehicle: saline with Tween-80 107 % of control and 124 % of control | dose: 10.0 mg/kg/injection, schedule: Q04DX002 (ip), vehicle: saline with Tween-80 122 % of control | dose: 80.0 mg/kg/injection, schedule: Q04DX002 (ip), vehicle: saline with Tween-80 122 % of control

CC(NCCCCCCNC(C)C(=O)O)C(=O)O (centres undefined)
inactive: [1] 105 % of control | dose: 100.0 mg/kg/injection, schedule: Q01DX005 (ip), vehicle: saline with Tween-80 100 % of control | dose: 200.0 mg/kg/injection, schedule: Q01DX005 (ip), vehicle: saline with Tween-80 117 % of control

C(=Nc1cnc2ccccc2c1)c1ccnc2ccccc12
inactive: [2] 98 % of control | dose: 12.5 mg/kg/injection, schedule: Q04DX003 (ip), vehicle: saline with Tween-80 107 % of control | [3] 98 % of control | [4] 96 % of control | [5] 101 % of control | [6] 114 % of control | [7] 96 % of control | [8] 99 % of control

CC1(C)OC2OC(C3COC(=O)O3)C(O)C2O1 (centres undefined)
inactive: dose: 50.0 mg/kg/injection, schedule: Q01DX005 (ip), vehicle: Klucel (hydroxypropylcellulose) (HPC) 95 % of control | dose: 100.0 mg/kg/injection, schedule: Q01DX005 (ip), vehicle: Klucel (hydroxypropylcellulose) (HPC) 98 % of control | dose: 200.0 mg/kg/injection, schedule: Q01DX005 (ip), vehicle: Klucel (hydroxypropylcellulose) (HPC) 101 % of control

CNC(=O)Nc1ccn(C(=O)NC)c(=O)n1
inactive: dose: 100.0 mg/kg/injection, schedule: Q04DX002 (ip), vehicle: Klucel (hydroxypropylcellulose) (HPC) 114 % of control | dose: 200.0 mg/kg/injection, schedule: Q04DX002 (ip), vehicle: Klucel (hydroxypropylcellulose) (HPC) 120 % of control

COC(=O)C/C(C(=O)OC)=C1\CCCC2=C1N1CCCC1C2(CC(=O)OC)C(=O)OC (centres undefined)
inactive: dose: 12.5 mg/kg/injection, schedule: Q01DX001 (ip), vehicle: Klucel (hydroxypropylcellulose) (HPC) 97 % of control | dose: 25.0 mg/kg/injection, schedule: Q01DX001 (ip), vehicle: Klucel (hydroxypropylcellulose) (HPC) 98 % of control | dose: 50.0 mg/kg/injection, schedule: Q01DX001 (ip), vehicle: Klucel (hydroxypropylcellulose) (HPC) 100 % of control

O=C(CCCCCCCCC(=O)Nc1ccccc1)Nc1ccccc1
inactive: [9] 103 % of control | [10] 103 % of control | dose: 200.0 mg/kg/injection, schedule: Q01DX001 (ip), vehicle: saline with Tween-80 100 % of control | dose: 400.0 mg/kg/injection, schedule: Q01DX001 (ip), vehicle: saline with Tween-80 108 % of control

N#Cc1cccn1OCN1C(=O)c2ccccc2C1=O
inactive: dose: 25.0 mg/kg/injection, schedule: Q04DX003 (ip), vehicle: Klucel (hydroxypropylcellulose) (HPC) 100 % of control | dose: 50.0 mg/kg/injection, schedule: Q04DX003 (ip), vehicle: Klucel (hydroxypropylcellulose) (HPC) 103 % of control | [11] 100 % of control and 92 % of control | [12] 87 % of control

COc1cc2ccc1-c1cc(ccc1O)CC1c3cc4c(cc3CCN1C)Oc1c(OC)cc3c(c1O4)C(C2)N(C)CC3 (centres undefined)
inactive: dose: 7.5 mg/kg/injection, schedule: Q01DX005 (ip), vehicle: Klucel (hydroxypropylcellulose) (HPC) 99 % of control | dose: 15.0 mg/kg/injection, schedule: Q01DX005 (ip), vehicle: Klucel (hydroxypropylcellulose) (HPC) 99 % of control | dose: 30.0 mg/kg/injection, schedule: Q01DX005 (ip), vehicle: Klucel (hydroxypropylcellulose) (HPC) 92 % of control | dose: 60.0 mg/kg/injection, schedule: Q01DX005 (ip), vehicle: Klucel (hydroxypropylcellulose) (HPC) 104 % of control

C[C@@H]1C(=O)CC23COC(=O)C2=CCCC3[C@@]1(C)CCC1COC(=O)C1 (some centres undefined)
inactive: dose: 12.5 mg/kg/injection, schedule: Q01DX005 (ip), vehicle: distilled water + alcohol 100 % of control | dose: 25.0 mg/kg/injection, schedule: Q01DX005 (ip), vehicle: distilled water + alcohol 100 % of control | dose: 50.0 mg/kg/injection, schedule: Q01DX005 (ip), vehicle: distilled water + alcohol 106 % of control | dose: 60.0 mg/kg/injection, schedule: Q01DX005 (ip), vehicle: distilled water + alcohol 101 % of control | dose: 100.0 mg/kg/injection, schedule: Q01DX005 (ip), vehicle: distilled water + alcohol 107 % of control | dose: 120.0 mg/kg/injection, schedule: Q01DX005 (ip), vehicle: distilled water + alcohol 108 % of control | dose: 240.0 mg/kg/injection, schedule: Q01DX005 (ip), vehicle: distilled water + alcohol 110 % of control

O=C1c2ccc(-c3ccccc3)cc2C(=O)c2cc3c(cc21)OCO3
inactive: dose: 7.5 mg/kg/injection, schedule: Q01DX005 (ip), vehicle: saline with Tween-80 110 % of control | dose: 15.0 mg/kg/injection, schedule: Q01DX005 (ip), vehicle: saline with Tween-80 100 % of control | dose: 30.0 mg/kg/injection, schedule: Q01DX005 (ip), vehicle: saline with Tween-80 92 % of control

O=C1NC(=O)C2(c3ccccc3)CCN1C2=O (centres undefined)
inactive: dose: 50.0 mg/kg/injection, schedule: Q01DX009 (ip), vehicle: Klucel (hydroxypropylcellulose) (HPC) 103 % of control | dose: 100.0 mg/kg/injection, schedule: Q01DX009 (ip), vehicle: Klucel (hydroxypropylcellulose) (HPC) 110 % of control | dose: 200.0 mg/kg/injection, schedule: Q01DX009 (ip), vehicle: Klucel (hydroxypropylcellulose) (HPC) 104 % of control

[N-]=[N+]=NC(=O)Nc1cccc(C(F)(F)F)c1
inactive: dose: 15.0 mg/kg/injection, schedule: Q01DX005 (ip), vehicle: Klucel + Tween-80 103 % of control | dose: 30.0 mg/kg/injection, schedule: Q01DX005 (ip), vehicle: Klucel + Tween-80 96 % of control | dose: 60.0 mg/kg/injection, schedule: Q01DX005 (ip), vehicle: Klucel + Tween-80 100 % of control and 93 % of control

NC(CSP(=O)(O)O)=NCC12CC3CC(CC(C3)C1)C2
inactive: dose: 3.12 mg/kg/injection, schedule: Q01DX009 (ip), vehicle: saline with Tween-80 100 % of control | dose: 6.25 mg/kg/injection, schedule: Q01DX009 (ip), vehicle: saline with Tween-80 104 % of control | [2] 110 % of control

CCN(c1ccccc1)c1cc2c(cc1[N+](=O)[O-])no[n+]2[O-]
inactive: dose: 1.87 mg/kg/injection, schedule: Q01DX009 (ip), vehicle: saline 101 % of control | dose: 3.75 mg/kg/injection, schedule: Q01DX009 (ip), vehicle: saline 91 % of control | dose: 7.5 mg/kg/injection, schedule: Q01DX009 (ip), vehicle: saline 90 % of control and 97 % of control | dose: 15.0 mg/kg/injection, schedule: Q01DX009 (ip), vehicle: saline 103 % of control and 91 % of control | dose: 30.0 mg/kg/injection, schedule: Q01DX009 (ip), vehicle: saline 93 % of control

Cc1c(O)ccc(N=O)c1O
inactive: dose: 6.25 mg/kg/injection, schedule: Q01DX005 (ip), vehicle: saline with Tween-80 98 % of control | dose: 12.5 mg/kg/injection, schedule: Q01DX005 (ip), vehicle: saline with Tween-80 94 % of control | dose: 25.0 mg/kg/injection, schedule: Q01DX005 (ip), vehicle: saline with Tween-80 90 % of control | [1] 93 % of control

O=C(Nc1ccc2cc(S(=O)(=O)O)ccc2c1)c1ccc(N=Nc2c(S(=O)(=O)O)cc3cc(S(=O)(=O)O)cc(NC(=O)c4ccccc4)c3c2O)cc1
inactive: [3] 108 % of control | [4] 91 % of control | [5] 108 % of control | [6] 87 % of control | [7] 87 % of control | [8] 95 % of control

CC(C)NC(=O)c1ccccc1Sc1ccccc1CN(C)C(C)C
inactive: dose: 25.0 mg/kg/injection, schedule: Q01DX001 (ip), vehicle: saline with Tween-80 99 % of control | [9] 95 % of control | [10] 98 % of control and 102 % of control

Cc1ccc(-c2csc3nc(C)cc(=O)n23)cc1
inactive: [11] 111 % of control | dose: 200.0 mg/kg/injection, schedule: Q04DX003 (ip), vehicle: Klucel (hydroxypropylcellulose) (HPC) 105 % of control | [12] 106 % of control

C1CN2CCN1CC2
inactive: dose: 50.0 mg/kg/injection, schedule: Q01DX009 (ip), vehicle: saline 99 % of control and 105 % of control | dose: 100.0 mg/kg/injection, schedule: Q01DX009 (ip), vehicle: saline 94 % of control and 108 % of control | dose: 200.0 mg/kg/injection, schedule: Q01DX009 (ip), vehicle: saline 103 % of control and 99 % of control

Cc1ccc(S(=O)(=O)Nc2ccc3ncccc3c2)cc1
inactive: [8] 99 % of control | dose: 200.0 mg/kg/injection, schedule: Q04DX003 (ip), vehicle: saline with Tween-80 98 % of control
